In patent US11708346B2, “Treatment and prevention of neuropathic pain with P2Y14 antagonists” (Saint Louis University, priority 2019, dated 2023):
Entries after “also recorded” stand apart in the source; their conditions may differ.

Tests used:
[1] = target: T1, hP2Y14R (Homo sapiens, UniProt Q15391); test: Competitive fluorescent binding assay in whole CHO-hP2Y14R cells, tracer 20, flow cytometry; settings: read-out: Human P2Y14R binding affinity (IC50)
T1 construct: expressed in transfected cells; host or cells: CHO
T1 sequence (Q15391 1-338): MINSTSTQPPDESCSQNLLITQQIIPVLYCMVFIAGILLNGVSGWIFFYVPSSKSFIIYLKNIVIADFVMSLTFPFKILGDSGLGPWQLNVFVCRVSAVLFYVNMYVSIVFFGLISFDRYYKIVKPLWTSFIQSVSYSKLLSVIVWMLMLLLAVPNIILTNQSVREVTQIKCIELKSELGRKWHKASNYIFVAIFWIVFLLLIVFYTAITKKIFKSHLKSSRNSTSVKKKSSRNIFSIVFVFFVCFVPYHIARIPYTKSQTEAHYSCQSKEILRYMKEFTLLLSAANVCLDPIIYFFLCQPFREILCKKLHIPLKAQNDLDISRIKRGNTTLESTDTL

[2] = target: DOR (Homo sapiens, UniProt P41143); test: PDSP off-target binding
[3] = target: T2, α2C (Homo sapiens, UniProt P18825); test: PDSP off-target binding; settings: ± SEM
T2 sequence (P18825 1-462): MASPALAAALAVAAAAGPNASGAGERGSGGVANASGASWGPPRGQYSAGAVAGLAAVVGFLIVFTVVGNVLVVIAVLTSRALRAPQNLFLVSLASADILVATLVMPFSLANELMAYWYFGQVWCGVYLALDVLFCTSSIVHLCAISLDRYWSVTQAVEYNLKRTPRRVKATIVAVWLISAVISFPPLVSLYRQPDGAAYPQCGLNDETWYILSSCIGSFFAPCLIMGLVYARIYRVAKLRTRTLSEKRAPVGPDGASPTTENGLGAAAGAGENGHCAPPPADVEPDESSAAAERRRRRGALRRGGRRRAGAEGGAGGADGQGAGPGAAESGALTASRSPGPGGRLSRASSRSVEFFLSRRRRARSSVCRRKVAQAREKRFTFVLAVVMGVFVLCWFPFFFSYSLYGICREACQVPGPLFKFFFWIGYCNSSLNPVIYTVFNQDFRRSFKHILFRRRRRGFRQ

[4] = target: T3, α2A (Homo sapiens, UniProt P08913); test: PDSP off-target binding
T3 sequence (P08913 1-465): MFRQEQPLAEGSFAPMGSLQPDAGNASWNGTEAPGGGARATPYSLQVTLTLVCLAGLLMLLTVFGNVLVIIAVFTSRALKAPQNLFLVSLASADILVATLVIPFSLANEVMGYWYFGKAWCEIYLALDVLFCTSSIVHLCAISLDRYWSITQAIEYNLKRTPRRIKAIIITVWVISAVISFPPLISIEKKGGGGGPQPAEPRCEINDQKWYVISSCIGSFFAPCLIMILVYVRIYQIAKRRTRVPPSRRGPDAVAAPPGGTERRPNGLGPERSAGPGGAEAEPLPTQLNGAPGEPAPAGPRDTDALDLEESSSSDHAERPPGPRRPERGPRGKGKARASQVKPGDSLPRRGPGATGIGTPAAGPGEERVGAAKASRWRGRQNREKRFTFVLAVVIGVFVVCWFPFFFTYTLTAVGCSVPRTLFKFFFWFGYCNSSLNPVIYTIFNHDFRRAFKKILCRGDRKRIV

[5] = target: T4, α2B (Homo sapiens, UniProt P18089); test: PDSP off-target binding
T4 sequence (P18089 1-450): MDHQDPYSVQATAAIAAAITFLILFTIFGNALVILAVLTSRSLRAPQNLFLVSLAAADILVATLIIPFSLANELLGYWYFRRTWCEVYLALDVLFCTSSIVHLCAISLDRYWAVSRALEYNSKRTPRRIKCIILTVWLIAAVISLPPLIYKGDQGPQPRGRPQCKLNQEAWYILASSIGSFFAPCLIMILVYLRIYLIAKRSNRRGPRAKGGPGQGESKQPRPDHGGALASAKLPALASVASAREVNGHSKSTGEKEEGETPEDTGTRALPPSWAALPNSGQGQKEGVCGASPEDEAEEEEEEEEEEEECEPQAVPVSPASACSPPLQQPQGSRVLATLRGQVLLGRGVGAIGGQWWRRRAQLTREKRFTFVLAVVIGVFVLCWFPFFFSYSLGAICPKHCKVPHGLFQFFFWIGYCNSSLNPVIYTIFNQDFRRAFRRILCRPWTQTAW

[6] = system: CCI-induced mechano-allodynia; test: Chronic constriction injury (CCI) of the sciatic nerve, mechano-allodynia by von Frey filaments; format: in vivo, mouse
Procedure: Chronic constriction injury (CCI) to the sciatic nerve was performed using the Bennett model. […] Then the animals were placed on a sterile surgical field and the skin was wiped with topical antiseptic, Dermachlor solution (0.2% chlorhexidine gluconate). […] A small incision was created on the lateral side of the left hind limb parallel to the femur. The sciatic nerve was exposed and ligated on two sites about 1 mm apart above the trifurcation using silk sutures 6.0. The incision was closed with clips and lidocaine cream was applied.
Mice were acclimated to the testing mesh-rack for 30 min before behavioral measurements. All behavioral testing was performed in the morning. The baseline measurements were determined on day 0 before CCI procedure. On day 7 post-CCI, baseline behavior responses were assessed, beginning prior to drug administration. Following drug injection, the behaviors were evaluated at multiple time points. Mechano-allodynia was quantified according to the hind paw withdrawal response to von Frey filaments stimulation by the Dixon up-and-down method. […] In presence of a positive withdrawal response a lighter filament was applied. If a negative response occurred, a stronger filament was used. At least four readings are obtained after the first positive response and the pattern of response was converted to a 50% paw withdrawal threshold (PWT), using the method described by Chaplan et al., J. Neurosci.
Data are expressed as mean±SD and analyzed by two-tailed, two-way repeated measures ANOVA with Dunnett's post hoc comparisons to day 7 behavior. The percentage of reversal of peak CCI-induced pain afforded by each drug was calculated for each animal using their baseline and day 7 post CCI behavioral measures. % Reversal=(PWT(g)t−PWT(g)day7)/PWT(g)day0−PWT(g)day7)×100, where PWT(g)=paw withdrawal threshold, t=time after drug. […] All statistical analyses were performed using GraphPad Prism 8 (Graph Pad Inc., San Diego, Calif.). Significance was accepted at p<0.05.

[7] = target: T5, mP2Y14R (Mus musculus, UniProt Q9ESG6)
T5 sequence (Q9ESG6 1-338): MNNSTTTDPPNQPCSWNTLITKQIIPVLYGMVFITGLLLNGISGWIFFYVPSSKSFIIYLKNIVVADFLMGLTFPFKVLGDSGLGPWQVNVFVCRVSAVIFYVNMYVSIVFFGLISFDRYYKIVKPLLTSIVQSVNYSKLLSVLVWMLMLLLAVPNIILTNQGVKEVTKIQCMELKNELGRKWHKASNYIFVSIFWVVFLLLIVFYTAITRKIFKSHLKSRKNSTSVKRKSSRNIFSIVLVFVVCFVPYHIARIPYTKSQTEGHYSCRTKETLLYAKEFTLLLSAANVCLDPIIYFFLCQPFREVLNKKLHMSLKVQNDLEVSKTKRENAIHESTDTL

[8] = target: 5HT1D (Homo sapiens, UniProt P28221); test: PDSP off-target binding; settings: ± SEM
[9] = target: 5HT1E (Homo sapiens, UniProt P28566); test: PDSP off-target binding; settings: ± SEM
[10] = target: β3 (Homo sapiens, UniProt P13945); test: PDSP off-target binding; settings: ± SEM
[11] = target: TSPO (Rattus norvegicus, UniProt P16257); test: PDSP off-target binding; settings: ± SEM
[12] = 10 μmol/kg, i.p., day 7 post-CCI, n = 3

5HT1E, sequence (P28566 whole entry, species assumed): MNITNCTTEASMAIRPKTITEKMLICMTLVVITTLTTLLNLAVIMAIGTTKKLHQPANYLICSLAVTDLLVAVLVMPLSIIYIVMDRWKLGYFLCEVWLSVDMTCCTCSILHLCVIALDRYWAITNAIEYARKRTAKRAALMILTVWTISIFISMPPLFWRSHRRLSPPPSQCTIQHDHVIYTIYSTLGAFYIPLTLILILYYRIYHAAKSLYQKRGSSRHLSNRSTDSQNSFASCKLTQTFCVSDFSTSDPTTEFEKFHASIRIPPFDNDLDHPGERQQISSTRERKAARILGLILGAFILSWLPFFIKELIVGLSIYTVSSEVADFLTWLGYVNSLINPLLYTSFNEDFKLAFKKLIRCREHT
DOR, sequence (P41143 whole entry): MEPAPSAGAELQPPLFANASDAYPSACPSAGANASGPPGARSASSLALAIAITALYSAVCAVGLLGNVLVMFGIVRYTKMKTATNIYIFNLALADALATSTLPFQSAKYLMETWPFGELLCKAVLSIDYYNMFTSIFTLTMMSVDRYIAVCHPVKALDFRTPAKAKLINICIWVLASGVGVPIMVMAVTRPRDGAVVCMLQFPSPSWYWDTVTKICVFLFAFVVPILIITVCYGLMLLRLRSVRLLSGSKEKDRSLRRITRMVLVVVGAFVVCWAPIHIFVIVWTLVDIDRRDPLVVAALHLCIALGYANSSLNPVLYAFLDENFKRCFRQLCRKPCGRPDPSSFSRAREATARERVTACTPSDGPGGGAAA
5HT1D, sequence (P28221 whole entry, species assumed): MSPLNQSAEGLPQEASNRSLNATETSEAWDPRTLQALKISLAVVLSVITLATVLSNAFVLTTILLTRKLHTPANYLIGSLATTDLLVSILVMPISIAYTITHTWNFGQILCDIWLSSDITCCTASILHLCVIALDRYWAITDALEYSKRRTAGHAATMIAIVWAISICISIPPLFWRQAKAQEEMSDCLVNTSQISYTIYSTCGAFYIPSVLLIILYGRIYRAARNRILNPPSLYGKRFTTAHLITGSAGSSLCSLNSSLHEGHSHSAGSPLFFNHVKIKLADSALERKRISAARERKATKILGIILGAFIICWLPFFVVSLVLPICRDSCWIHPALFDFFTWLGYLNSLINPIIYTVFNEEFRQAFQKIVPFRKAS
β3, sequence (P13945 whole entry): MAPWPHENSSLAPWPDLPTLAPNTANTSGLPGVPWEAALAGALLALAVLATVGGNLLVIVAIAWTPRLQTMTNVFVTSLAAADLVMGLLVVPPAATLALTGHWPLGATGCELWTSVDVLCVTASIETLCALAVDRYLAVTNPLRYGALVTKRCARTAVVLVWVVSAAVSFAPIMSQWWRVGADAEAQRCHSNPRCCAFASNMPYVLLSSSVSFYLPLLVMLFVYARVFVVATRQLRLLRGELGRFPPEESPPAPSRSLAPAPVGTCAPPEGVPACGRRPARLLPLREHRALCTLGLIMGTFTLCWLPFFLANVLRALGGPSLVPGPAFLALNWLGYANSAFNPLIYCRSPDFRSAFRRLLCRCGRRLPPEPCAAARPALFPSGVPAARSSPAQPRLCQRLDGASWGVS
TSPO, sequence (P16257 whole entry): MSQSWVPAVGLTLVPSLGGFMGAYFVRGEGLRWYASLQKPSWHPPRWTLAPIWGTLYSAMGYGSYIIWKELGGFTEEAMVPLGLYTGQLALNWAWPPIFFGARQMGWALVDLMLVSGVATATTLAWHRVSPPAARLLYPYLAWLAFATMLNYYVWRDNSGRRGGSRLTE

Structure (SMILES) | IC50 [1] | Ki [2] | Ki [3] | Ki [4] | Ki [5] | In vivo efficacy compared with a comparator compound ([6]; 10 μmol/kg i.p., 6 vs 7, 4 vs 1) | Effect at 0.5 h (% ± SD), percent inhibition of mechano-allodynia [6, 12] | Effect at 1 h (% + SD), percent inhibition of mechano-allodynia [6, 12] | Effect at 2 h (% ± SD), percent inhibition of mechano-allodynia [6, 12] | Effect at 3 h (% ± SD), percent inhibition of mechano-allodynia [6, 12] | Effect at 5 h (% ± SD), percent inhibition of mechano-allodynia [6, 12] | Reversal of CCI-induced mechano-allodynia ([6]; 10 μmol/kg, i.p., ipsilateral hind paw, day 7 post-CCI) | mP2Y14R affinity compared to isomer 6 ([7]; 7 vs 6) | IC50 ([7]; read-out: Mouse P2Y14R binding affinity (IC50), mP2Y14R in HEK293 cells, tracer 20) | Ki [8] | Ki [9] | Ki [10] | Ki [11]
O=C(O)c1cc(-c2ccc(C3CCNCC3)cc2)cc(-c2cn(-c3ccc(C(F)(F)F)cc3)nn2)c1 [Compound 7, 4′-(Piperidin-4-yl)-5-(1-(4-(trifluormethyl)phenyl)-1H-1,2,3-triazol-4-yl)-[1,1′-biphenyl]-3-carboxylic acid] | 664 ± 175 nM | 3790 nM | 2710 nM | 959 nM | 5330 nM | no statistical difference; also recorded: similar | 70.7 ± 16.5% | 86.8 ± 2.4% | 71.4 ± 10.2% | 55.1 ± 18.6% | 6.7 ± 5.9% | reversed the allodynia | nearly equipotent | 246 ± 63 nM |  |  |  | 
CC(=O)N1CCC(c2ccc(-c3cc(C(=O)O)cc4cc(-c5ccc(C(F)(F)F)cc5)ccc34)cc2)CC1 [Compound 4, 4-(4-(1-(Acetyl)piperidin-4-yl)phenyl)-7-(4-(trifluoromethyl)phenyl)-2-naphthoic acid] |  |  |  |  |  |  |  |  |  |  |  |  |  |  | 1750 nM | 3910 nM | 860 nM | 508 nM
